Tests used:
Format in all cases: physicochemical
[1] = Solubility of compound in safety solvent; conditions: safety solvent (PGMEA or EL) at 23° C.
Procedure: (1) Solubility of Compound in Safety Solvent
Each compound was tested for its solubility in safety solvent (PGMEA or EL) at 23° C. The solubility was rated as “A” when dissolved in an amount of 5% by weight or more, “B” when dissolved in an amount of 0.1% by weight or more but less than 5% by weight, and “C” when not dissolved in an amount of 0.1% by weight or more.

[2] = Inhibition of dissolution in alkali developing solution; parameters: key: A: no change was visually noticed in the state of film; C: the surface was roughened or a part of the film was lost because of dissolution; conditions: resist film immersed in 2.38% aqueous solution of TMAH for 3 min
Procedure: (3) Inhibition of Dissolution in Alkali Developing Solution
The resist film formed in the evaluation 2 was immersed in a developing solution (2.38% aqueous solution of TMAH) for 3 min. The results were rated as “A” when no change was visually noticed in the state of film, and “C” when the surface was roughened or a part of the film was lost because of dissolution.

Alkali developability = assay: Alkali developability; parameters: key: A: the resist film dissolved completely and disappeared; C: the resist film remained not dissolved even in a slight amount; conditions: tested on the corresponding polyphenol compound A before introducing the acid-dissociating group; film immersed in 2.38% aqueous TMAH for 10 s
Procedure: (5) Alkali Developability
A polyphenol compound A corresponding to each compound before introducing the acid-dissociating functional group was examined for its developability with an alkali developing solution.
A 10% by weight solution of each polyphenol compound A in PGMEA was spin-coated using a spin coater, to form a resist film of about 0.2 μm thick. After heating on a hot plate for 3 min at 110° C., the resist film was immersed in a 2.38% aqueous solution of TMAH for 10 s. The results were rated as “A” when the resist film dissolved completely and disappeared, and “C” when the resist film remained not dissolved even in a slight amount.

SMILES | (1) Solubility in safety solvent [1] | (3) Inhibition of dissolution in developing solution [2] | (5) Alkali developability (Alkali developability)
Cc1cc(C(C)(c2ccc(OC(=O)OC(C)(C)C)c(C)c2)c2ccc3ccccc3c2)ccc1OC(=O)OC(C)(C)C [Compound 5-1] | A (dissolved in an amount of 5% by weight or more) | A | A
Cc1cc(C(C)(c2ccc(OC(=O)OC(C)(C)C)c(C)c2)c2ccc3ccccc3c2)ccc1O (stereo not drawn) [Compound 5-2] | A (dissolved in an amount of 5% by weight or more) | A | A
CC(C)(C)OC(=O)Cc1cc(C(C)(c2ccc(OC(=O)OC(C)(C)C)c(OC(=O)OC(C)(C)C)c2)c2ccc3ccccc3c2)ccc1OC(=O)OC(C)(C)C (stereo not drawn) [Compound 5-3] | A (dissolved in an amount of 5% by weight or more) | A | A
CCOC(C)Oc1ccc(C(C)(c2ccc(O)c(C)c2)c2ccc3ccccc3c2)cc1C (stereo not drawn) [Compound 5-4] | A (dissolved in an amount of 5% by weight or more) | A | A
Cc1cc(C(C)(c2ccc(OC(C)OC3CCCCC3)c(C)c2)c2ccc3ccccc3c2)ccc1O (stereo not drawn) [Compound 5-5] | A (dissolved in an amount of 5% by weight or more) | A | A
Cc1cc(C(C)(c2ccc(OC3CCCCO3)c(C)c2)c2ccc3ccccc3c2)ccc1O (stereo not drawn) [Compound 5-6] | A (dissolved in an amount of 5% by weight or more) | A | A
CCOC(C)Oc1ccc(C(C)(c2ccc(O)c(C3CCCCC3)c2)c2ccc3ccccc3c2)cc1C1CCCCC1 (stereo not drawn) [Compound 5-7] | A (dissolved in an amount of 5% by weight or more) | A | A
CC(C)(C)OC(=O)Oc1ccc(C(C)(c2ccc(O)cc2)c2ccc3ccccc3c2)cc1 (stereo not drawn) [Compound 5-8] | A (dissolved in an amount of 5% by weight or more) | A | A
CC(C)(C)OC(=O)Oc1ccc(C(c2ccc(O)cc2)c2cccc3ccccc23)cc1 (stereo not drawn) [Compound 5-9] | A (dissolved in an amount of 5% by weight or more) | A | A
Oc1ccc(C(c2ccc(OC3CCCCO3)cc2)c2ccc(-c3ccccc3)cc2)cc1 (stereo not drawn) [Compound 6-1] | A (dissolved in an amount of 5% by weight or more) | A | A
CC(C)(C)OC(=O)Oc1ccc(C2(c3ccc(OC(=O)OC(C)(C)C)c(OC(=O)OC(C)(C)C)c3)c3ccccc3-c3ccccc32)cc1OC(=O)OC(C)(C)C [Compound 7-1] | B (dissolved in an amount of 0.1% by weight or more but less than 5% by weight) | A | 
CC(C)(C)OC(=O)Oc1cc(C2(c3ccc(OC(=O)OC(C)(C)C)c(OC(=O)OC(C)(C)C)c3)c3ccccc3-c3ccccc32)ccc1O [Compound 7-2] | A (dissolved in an amount of 5% by weight or more) | A | A
CC(C)(C)OC(=O)Oc1ccc(C(C)(C)c2ccc(OC(=O)OC(C)(C)C)cc2)cc1 [Compound 14-1, reference compound] | C (not dissolved in an amount of 0.1% by weight or more) |  | A
CC(C)(C)OC(=O)Oc1ccc(C2(c3ccc(OC(=O)OC(C)(C)C)cc3)CCCCC2)cc1 [Compound 14-2, reference compound] | C (not dissolved in an amount of 0.1% by weight or more) |  | A

Reference: patent publication US20070059632A1, “Method of manufacturing a semiconductor device” (priority 2003, published 2007)
